This is an account of results in paper PMC10138577, “Prenylated Flavonoids with Selective Toxicity against Human Cancers” (International Journal of Molecular Sciences, 2023).

Format in all cases: cell-based
Experiment [1] has as its system normal murine embryonic fibroblasts (BALB/3T3). Briefly: In vitro cytotoxicity against normal cells (SRB), BALB/3T3. Particulars: BALB3T3 normal cell line, 72 h exposure, SRB, mean ± SD; read-out: Antiproliferative activity IC50. From the text:
(§1) The following established in vitro cell lines were applied: human breast adenocarcinoma (MCF-7 and SK-BR-3), human breast ductal carcinoma (T47D), human prostate adenocarcinoma (PC-3), human prostate carcinoma (Du145), human colorectal adenocarcinoma (HT-29 and LoVo), doxorubicin-resistant human colorectal adenocarcinoma (LoVo/Dx), human myelomonocytic leukemia (MV-4-11), human lung adenocarcinoma (A549), normal murine embryonic fibroblasts (BALB/3T3) and human lung microvascular endothelial (HLMEC). All the cell lines were obtained from the American Type Culture Collection (Rockville, MD, USA) except for LoVo and LoVo/DX, which were received from the Technical University of Gdańsk, Poland, courtesy of Prof. E. Borowski. All the cell lines were maintained in the Institute of Immunology and Experimental Therapy, Wroclaw, Poland. The cells were cultured in the following media: DMEM medium (BALB/3T3), Eagle medium (MCF-7, SK-BR-3, Du145), RPMI medium (HLMEC, MV-4-11) or RPMI 1640 + Opti-MEM (1:1) medium (A549, T47D, LoVo, LoVo/Dx, PC-3, HT-29). The DMEM medium was supplemented with 2 mM L-glutamine and 10% fetal bovine serum. The Eagle medium was supplemented with 4 mM L-glutamine, 10% fetal bovine serum, 1 mM sodium pyruvate for Du145 cells or 2 mM L-glutamine, 1% amino acids and 0.8 mg L^−1 of insulin for MCF-7 and SK-BR-3. The RPMI medium was supplemented with 2 mM L-glutamine, 1 mM sodium pyruvate and 10% fetal bovine serum. The RPMI 1640 + Opti-MEM (1:1) medium was supplemented with 2 mM L-glutamine, 5% fetal bovine serum (PC-3, A549) and 0.8 mg L^−1 insulin (T47D) or 1 mM sodium pyruvate (HT-29, LoVo, LoVoDx) and 0.1 ug/mL doxorubicin (LoVo/Dx). The media contained antibiotics: 100 µg mL^−1 streptomycin and 100 U mL^−1 penicillin. All the cell lines were incubated at 37 °C in a humid atmosphere saturated with 5% CO2.
(§2) The details of this technique were described by Skehan et al.. […] The unbound dye was removed by washing the plates five times with 1% acetic acid, whereas the stain bound to the cells was extracted with 150 µL of 10 mM unbuffered Tris base for determination of the optical density at a 540 nm wavelength in a computer-interfaced, 96-well microtiter plate reader–Multiskan FC photometer (Thermo Scientific, Waltham, MA, USA). The background optical density was measured in the wells filled with culture medium, without the cells.
(§3) Twenty-four hours before incubation with the tested compounds, the cells were seeded in 96-well plates (Sarstedt, Nümbrecht, Germany) at a density of 10^4 cells per well (10^3 cells per well for HLMEC) in 100 µL of culture medium. […] The results were calculated as the IC50 (μM) (half maximal inhibitory concentration), i.e., the concentration of the tested agent that inhibits the proliferation of the cancer cell population by half. […]

The test system of experiment [2] is T47D human breast ductal carcinoma cells. Briefly: In vitro antiproliferative assay (SRB), T47D. Particulars: T47D, 72 h exposure, SRB, mean ± SD.
From the text: as §1
(§4) The details of this technique were described by Skehan et al.. After 72 h of incubation with the tested compounds, the cells were fixed in situ by gently adding cold 50% trichloroacetic acid—TCA (50 µL per well). The plates were incubated at 4 °C for 1 h and then washed five times with tap water and air-dried. Next, the cellular material fixed with TCA was stained by adding 50 µL of 0.4% sulforhodamine B dissolved in 1% acetic acid to each well and incubating the wells for 30 min at room temperature. The unbound dye was removed by washing the plates five times with 1% acetic acid, whereas the stain bound to the cells was extracted with 150 µL of 10 mM unbuffered Tris base for determination of the optical density at a 540 nm wavelength in a computer-interfaced, 96-well microtiter plate reader–Multiskan FC photometer (Thermo Scientific, Waltham, MA, USA). The background optical density was measured in the wells filled with culture medium, without the cells.
(§5) Twenty-four hours before incubation with the tested compounds, the cells were seeded in 96-well plates (Sarstedt, Nümbrecht, Germany) at a density of 10^4 cells per well (10^3 cells per well for HLMEC) in 100 µL of culture medium. The analysis of the antiproliferative activity of the compounds was performed using sulforhothamine B (SRB) (for all the adherent cells) or 3-(4,5-dimethylthiazol-2-yl)-2,5-diphenyl tetrazolium bromide (MTT) (for the leukemia cells—MV-4-11). The details of this technique have been previously described by Skehan et al. and Antoszak et al.. An assay was performed after 72 h of exposure at varying concentrations (from 0.1 to 100 µg mL^−1) of xanthohumol (1), aurone (2) and the reference drug cisplatin. Each compound at each concentration was tested in a single experiment, which was repeated at least 3 times. […] The results were calculated as the IC50 (μM) (half maximal inhibitory concentration), i.e., the concentration of the tested agent that inhibits the proliferation of the cancer cell population by half. […]

Experiment [3] has as its system MV-4-11 human myelomonocytic leukemia cells. Briefly: In vitro antiproliferative assay (MTT), MV-4-11. Particulars: MV-4-11, 72 h exposure, MTT, mean ± SD.
From the text: as §1
The details of this technique were described by Antoszczak et al.. The proliferation inhibition of human myelomonocytic leukemia (MV-4-11) by the tested compounds was measured using the MTT assay. Thus, 20 µL of 3-(4,5-dimethylthiazol-2-yl)-2,5-diphenyl tetrazolium bromide solution was added to each well. Then, the plates were incubated for 4 h in a cell incubator to allow the cells to metabolize the yellow MTT to blue formazan. Next, 80 µL of lysing mixture (consisting of 67.5 g sodium dodecyl sulfate, 225 mL dimethylformamide and 275 mL distilled water) was added to each well. The plates were incubated for 24 h for the formazan crystals to be released from the cells and dissolved, and then the absorbance of each well was read on a 96-well microtiter plate reader (Multiskan FC photometer (Thermo Scientific)) at a 570 nm wavelength.
Twenty-four hours before incubation with the tested compounds, the cells were seeded in 96-well plates (Sarstedt, Nümbrecht, Germany) at a density of 10^4 cells per well (10^3 cells per well for HLMEC) in 100 µL of culture medium. The analysis of the antiproliferative activity of the compounds was performed using sulforhothamine B (SRB) (for all the adherent cells) or 3-(4,5-dimethylthiazol-2-yl)-2,5-diphenyl tetrazolium bromide (MTT) (for the leukemia cells—MV-4-11). The details of this technique have been previously described by Skehan et al. and Antoszak et al.. An assay was performed after 72 h of exposure at varying concentrations (from 0.1 to 100 µg mL^−1) of xanthohumol (1), aurone (2) and the reference drug cisplatin. Each compound at each concentration was tested in a single experiment, which was repeated at least 3 times. […] The results were calculated as the IC50 (μM) (half maximal inhibitory concentration), i.e., the concentration of the tested agent that inhibits the proliferation of the cancer cell population by half. The IC50 values and the mean values ± SD calculated for each experiment separately using GraphPad Prism software (GraphPad Software 9.1.0, San Diego, CA, USA) are presented in Table S1 in the Supplementary Materials.

Experiment [4] deals with A549 human lung adenocarcinoma cells. Briefly: In vitro antiproliferative assay (SRB), A549. Particulars: A549, 72 h exposure, SRB, mean ± SD.
From the text: as §1, §4, §5

Experiment [5] has as its system LoVo/Dx doxorubicin-resistant human colorectal adenocarcinoma cells. Briefly: In vitro antiproliferative assay (SRB), LoVo/Dx. Particulars: LoVo/Dx, 72 h exposure, SRB, mean ± SD.
From the text: as §1, §4, §5

Experiment [6] has as its system HT-29 human colorectal adenocarcinoma cells. Briefly: In vitro antiproliferative assay (SRB), HT-29. Particulars: HT-29, 72 h exposure, SRB, mean ± SD.
From the text: as §1, §4, §5

Experiment [7] deals with human lung microvascular endothelial (HLMEC) cells. Briefly: In vitro cytotoxicity against normal cells (SRB), HLMEC. Particulars: HLMEC normal cell line, 72 h exposure, SRB, mean ± SD; read-out: Antiproliferative activity IC50.
From the text: as §1, §2, §3

Experiment [8] deals with LoVo human colorectal adenocarcinoma cells. Briefly: In vitro antiproliferative assay (SRB), LoVo. Particulars: LoVo, 72 h exposure, SRB, mean ± SD.
From the text: as §1, §4, §5

Experiment [9] concerns Du145 human prostate carcinoma cells. Briefly: In vitro antiproliferative assay (SRB), Du145. Particulars: Du145, 72 h exposure, SRB, mean ± SD.
From the text: as §1, §4, §5

Experiment [10] concerns PC-3 human prostate adenocarcinoma cells. Briefly: In vitro antiproliferative assay (SRB), PC-3. Particulars: PC-3, 72 h exposure, SRB, mean ± SD.
From the text: as §1, §4, §5

For experiment [11], the system named is MCF-7 human breast adenocarcinoma cells. Briefly: In vitro antiproliferative assay (SRB), MCF-7. Particulars: MCF-7, 72 h exposure, SRB, mean ± SD.
From the text: as §1, §4, §5

Experiment [12] relates to SK-BR-3 human breast adenocarcinoma cells. Briefly: In vitro antiproliferative assay (SRB), SK-BR-3. Particulars: SK-BR-3, 72 h exposure, SRB, mean ± SD.
From the text: as §1, §4, §5

One may read the IC50 as the midpoint of a concentration-inhibition curve. Consider `N.N.[Cl][Pt][Cl]` [Cisplatin, cisplatin, reference compound], for which the IC50 in experiment [1] is 8.96 ± 2.15 µM; in [2], 13.1 ± 5.58 µM; in experiment [3] it was 1.11 ± 0.36 µM; in experiment [4], 11.3 ± 1.36 µM; in experiment [5] it was 8.97 ± 1.45 µM; in experiment [6] it was 18.9 ± 2.25 µM. Also, the IC50 is 1.26 ± 0.1 µM in [7]; 4.32 ± 0.9 µM in [8]; 9.36 ± 0.63 µM in [9]; 15.3 ± 2.28 µM in experiment [10]; 11.3 ± 0.99 µM in experiment [11]; 21.6 ± 3.93 µM in experiment [12].
